Laboratory results as given in patent US20260250325A1, “Antiviral Polypeptide Membrane Fusion Inhibitor, and Preparation Method and Application Thereof” (priority 2025, published 2026).
Where a SMILES comes first, the peptide text is derived from it. The star is where a group is joined. Succinyl(4-O-cholesteryl) = CC(C)CCC[C@@H](C)[C@H]1CC[C@H]2[C@@H]3CC=C4C[C@@H](OC(=O)CCC(=O)*)CC[C@]4(C)[C@H]3CC[C@]12C

Experiments:
RSV A long virus strain = type: cell-based; conditions: RSV A long virus strain, HEp-2 cells, plaque reduction, 1 day; read-out: IC50
In short: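 Plaque reduction in HEp-2 cells: virus (100 PFU/well) and serially diluted compound (8 concentrations) mixed 1 h, adsorbed 2 h, then overlaid with 0.8% CMC medium plus compound for 1 day at 37 °C. Spots counted after anti-RSV immunostaining; IC50 from normalized inhibition, CC50 from viability data.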

RSV A2 virus strain = assay: Cotton rat RSV A2 challenge protection, lung nucleic acid load by RT-qPCR; type: in vivo; conditions: cotton rats
Excerpt: Female cotton rats were from Shanghai Yishang Biotechnology Co., Ltd. The RSV A2 virus strain was from the ATCC, with a catalog number VR-1540. RT-qPCR primer+probe primer were supplied by Qingke Biotechnology Co., Ltd, with batch number TSP20241227-025-00187. The RT-qPCR standard was provided by Vazyme, with batch number 20241008.
Female cotton rats (6-8 weeks old) were grouped based on body weight (n=5). All animals were intranasally challenged with RSV on Day 0 at a challenge dosage of […] pfu (50 μL) per animal. Administration began 1 h after Day 0 challenge; the polypeptide sample, positive control, and solvent control were administered via tracheal nebulization once daily for 5 consecutive days. Lung tissue was collected from all animals 2 h after the final administration on Day 4. Left lung tissue (including partial trachea) was rapidly frozen in a virus protection solution with a 10-fold volume and stored below −70° C.; and the viral titer was detected with RT-qPCR.
First, sample homogenization and lung tissue RNA extraction were performed, and the supernatant was taken from the tissue sample that was homogenized using a tissue homogenizer (maintaining a low-temperature environment). The approximately 100 μL of the homogenate supernatant was taken, and total tissue RNA was extracted by using a VeZol reagent-chloroform-water phase-magnetic bead method, and dissolved in RNase-free water. The RT-qPCR reaction system was prepared as follows: a one-step RT-qPCR reaction system was prepared by using an RNA template, a probe, a primer pair, an RT-qPCR buffer, and the RNase-free water; each sample was tested in duplicated wells, with each well containing 20 μL of the one-step RT-qPCR reaction system; a quantitative standard curve well (RSV A2 N gene full-length plasmid), a positive quality control well, and a negative quality control well were arranged at the same time. Then, amplification programs were set according to reverse transcription, pre-denaturation, and cyclic amplification, and amplification data was collected by using a real-time fluorescence quantification PCR instrument, and a mean CT value for duplicated wells was calculated. The CT value from the test results for each sample was substituted into a quantitative standard curve to calculate a copy number. A calculation formula for RSV viral load (copy number/gram of lung tissue) was: sample viral load (copy number/gram of lung tissue)=copy number/relative tissue input (g).
One hour after RSV A2 challenge in cotton rats, compounds 13, 14, 17, 19, 20, 21, 26, 27, 28, and 40 were administered via tracheal nebulization once daily for 5 consecutive days; and 2 h after the final administration, lung tissue was collected from all groups for viral titer detection, and results were shown in Table 4.

Compound: CC[C@H](C)[C@H](NC(=O)[C@H](CO)NC(=O)[C@H](C)NC(=O)[C@H](CC(=O)O)NC(=O)[C@H](Cc1ccccc1)NC(=O)[C@H](CCC(=O)O)NC(=O)[C@H](CC(=O)O)NC(C)=O)C(=O)N[C@@H](CO)C(=O)N[C@@H](CCC(N)=O)C(=O)N[C@H](C(=O)N[C@@H](CC(N)=O)C(=O)N[C@@H](CCC(=O)O)C(=O)N[C@@H](CCCCN)C(=O)N[C@H](C(=O)N[C@@H](CC(N)=O)C(=O)N[C@@H](CCC(N)=O)C(=O)N[C@@H](CO)C(=O)N[C@@H](CC(C)C)C(=O)N[C@@H](CCC(=O)O)C(=O)N[C@@H](CCC(=O)O)C(=O)N[C@H](C(=O)N[C@@H](CCCNC(=N)N)C(=O)N[C@@H](CCCCN)C(=O)N[C@@H](CO)C(=O)N[C@@H](CC(=O)O)C(=O)N[C@@H](CCC(=O)O)C(=O)N[C@@H](CC(C)C)C(=O)N[C@@H](CC(C)C)C(=O)N[C@@H](Cc1c[nH]cn1)C(=O)N[C@@H](CC(N)=O)C(=O)N[C@@H](CCC(=O)O)C(=O)N[C@@H](C)C(=O)N[C@@H](C)C(=O)N[C@@H](C)C(=O)N[C@@H](CCCCN)C(=O)N[C@@H](CCCCNC(=O)CCC(=O)O[C@H]1CC[C@@]2(C)C(=CC[C@H]3[C@@H]4CC[C@H]([C@H](C)CCCC(C)C)[C@@]4(C)CC[C@@H]32)C1)C(N)=O)[C@@H](C)CC)[C@@H](C)CC)C(C)C [Compound 28] (Ac-DEFDASISQVNEKINQSLEEIRKSDELLHNEAAAKK(Succinyl(4-O-cholesteryl))-NH2)
- IC50 (RSV A long virus strain): 12.4 nM
- Nucleic acid load RT-qPCR detection results Log10 mean (copy number/gram of lung tissue) (RSV A2 virus strain; tracheal nebulization 1 mg/kg QD for 5 days, lung collected 2 h after final administration on Day 4): 7.76 Log10 copy number/gram of lung
- effect on viral titer in lung tissue (in words) (RSV A2 virus strain; tracheal nebulization once daily for 5 days): significantly reduce the viral titer in lung tissue
